According to patent US20120276064A1, “METHODS AND COMPOSITIONS FOR REJUVENATION AND EXPANSION OF STEM CELLS” (priority 2011, published 2012):
“Also recorded” adds a separate entry of the source.

How the values were obtained:
[1] = tested on: MuSCs transplanted into tibialis anterior muscle; assay: Transplantation of cultured MuSCs into irradiated NOD/SCID mice, engraftment by bioluminescence imaging; format: in vivo, mouse; conditions: for Improvement of transplantation function of MuSCs cultured on rigid hydrogels: young and old MuSCs, rigid (~10^6 kPa) hydrogel, 10 μM, one week, 100 cells transplanted
Experimental: MuSC transplantation. MuSCs were transplanted immediately following FACS isolation or after collection from cell culture directly into the tibialis anterior muscle of recipient mice as previously described. Cells from GFP/Luciferase or Myf5^nLacZl+/Luciferase mice were transplanted into gender-matched, hindlimb-irradiated NOD/SCID (Jackson) mice. NOD/SCID (2-4 months of age, median 2 months) mice were anesthetized with ketamine (2.4 mg per mouse) and xylazine (240 μg per mouse) by intraperitoneal injection then were irradiated by a single dose of 18 Gy administered to the hindlimbs, with the rest of the body shielded in a lead jig. Transplantation was performed within three days post-irradiation. In syngeneic transplant studies, cells from old C57BL/6 mice were transplanted into gender-matched, littermate old C57BL/6 mice (Jackson) following culture for one week on soft hydrogels. Specifically, old C57BL/6 MuSCs were infected with a GFP/Luciferase lentivirus added at day 2 of culture for 24 hours. Recipient old C57BL/6 mice were acutely injured by a single 10 μl intramuscular injection of notexin (10 μg/ml; Latoxan, France) two days prior to cell transplantation, but were not irradiated. Freshly isolated or cultured cells were counted by hemocytometer and resuspended at desired cell concentrations in PBS with 2.5% goat serum and 1 mM EDTA. Cells were collected from hydrogel cultures by incubation with 0.5% trypsin in PBS for 2 min at 37° C. and counted using a hemocytometer. Cells were transplanted by intramuscular injection into the tibialis anterior muscle in a 10 μl volume.
Tissue histology. Recipient tibialis anterior muscle tissues were prepared for histology as previously described to analyze GFP expression. Transverse sections were incubated with anti-laminin (Millipore, Billerica, Calif.), anti-GFP (Invitrogen) antibodies, and/or anti-β-galactosidase (Abcam, Cambridge, Mass.) with appropriate secondary antibodies (Invitrogen). Nuclei were counter-stained with Hoechst 33342 (Invitrogen). Images were acquired with an AxioPlan2 epi-fluorescent microscope (Carl Zeiss Microimaging, Thornwood, N.Y.) with Plan NeoFluar 10×/0.30NA or 20×/0.75NA objectives (Carl Zeiss) and an ORCA-ER digital camera (Hamamatsu Photonics, Bridgewater, N.J.). Digital images were captured in OpenLab software (Improvision, Waltham, Mass.) and assembled in Photoshop software (Adobe, San Jose, Calif.) with consistent contrast adjustments across all images from the same stain.
Bioluminescence imaging. Bioluminescence imaging was performed using a Xenogen-100 system, as previously described. Briefly, mice were anesthetized under isofluorane and 100 μL luciferin (0.1 mmol/kg; Caliper LifeSciences, Hopkinton, Mass.) in PBS was administered by intraperitoneal injection. Following luciferin administration, images were acquired every minute for 15 min. Images acquired at 12 min post-luciferin injection were used for analysis. Digital images were recorded and analyzed using Living Image software (Caliper LifeSciences). Images were analyzed with a consistent region-of-interest (ROI) placed over each hindlimb to calculate a bioluminescence signal. A bioluminescence signal value of 80,000 photons/s was used to define a engraftment threshold, as this level corresponds to the histological detection of one or more GFP^+ myofiber (see FIG. 8A). BLI imaging was performed one month post-transplant unless otherwise stated.
(§1) MuSC culture and treatment. Following isolation, MuSCs were pelleted and resuspended into myogenic cell culture medium containing DMEM/F10 (50:50), 15% FBS, 2.5 ng/ml bFGF, and 1% penicillin/streptomycin. MuSCs were seeded at 1000 cells per well (24-well plate size wells, 2.0 cm^2 surface area) on laminin-tethered hydrogels of either 12 kPa (soft) or ˜10^6 kPa (rigid) rigidities. Cells were maintained at 37° C. in 5% CO2. Media was changed daily. […]

young and old MuSCs = assay: Bulk proliferation of MuSCs in soft hydrogel culture; format: cell-based, mouse; conditions: soft (12 kPa) hydrogel, 10 μM, one week
Experimental: as §1
Proliferation assays. MuSC proliferation in hydrogel culture was assessed at both the clonal and bulk levels. […] Cell proliferation was monitored by time-lapse microscopy from 12 hours (day 0) to four days post-seeding as described previously using a PALM/AxioObserver Z1 system (Carl Zeiss MicroImaging) with custom environmental control chamber and motorized stage. Images were recorded every 20 min at 5× magnification. […] After one week, cells were trypsinized and counted on a hemocytometer.

Oc1ccc(-c2nc(-c3ccncc3)c(-c3ccc(F)cc3)[nH]2)cc1 [SB202190]
Engraftment frequency for 100-cell transplants ([1]; old MuSCs cultured one week on soft hydrogel with 10 μM, one month post-transplant): 41% | Transplant engraftment frequency of the progeny of 10 old MuSCs ([1]; old MuSCs one week on soft hydrogels + SB (~300 cells), one month post-transplant): 79% | Extent of engraftment (BLI and histology) compared to freshly isolated MuSCs ([1]; progeny of 10 old MuSCs after one week on soft hydrogels + SB, listed as SB): not as robust; also recorded: slightly reduced regenerative extent | Engraftment frequency for 100-cell transplants ([1]; young MuSCs cultured one week on soft hydrogel with 10 μM, one month post-transplant): 45% | Improvement of transplantation function of MuSCs cultured on rigid hydrogels [1]: does not support significant improvement | Improvement of transplantation function of MuSCs cultured on rigid hydrogels ([1]; listed as SB): did not support a similar SB-mediated improvement | Increase in total cell numbers (relative to seeding) (young and old MuSCs): ~30 fold | Stimulation of proliferation of hydrogel-cultured MuSCs (in words) (young and old MuSCs): profound stimulation of proliferation
